This note sets out measurements from ChEMBL document CHEMBL4130506, “Design, synthesis and biological evaluation of N-(4-alkoxy-3-cyanophenyl)isonicotinamide/nicotinamide derivatives as novel xanthine oxidase inhibitors” (Eur J Med Chem, 2017).

One may read the IC50 as the concentration at which inhibition is half-maximal. Broadly, the inhibition is the drop in the measured response relative to a control, in per cent.

In series [1] the target is T1, Xanthine dehydrogenase/oxidase (Bos taurus, UniProt P80457). Put plainly: Inhibition of bovine xanthine oxidase assessed as reduction in uric acid formation using xanthine as substrate preincubated for 10 mins followed by substrate addition by UV spectrophotometric method.
The target of series [2] is T1, Xanthine dehydrogenase/oxidase. In words: Inhibition of bovine xanthine oxidase assessed as reduction in uric acid formation at 50 uM using xanthine as substrate preincubated for 10 mins followed by substrate addition by UV spectrophotometric method. The settings on record: cattle.
The target is the same in series [3]. In words: Mixed inhibition of bovine xanthine oxidase assessed as reduction in uric acid formation up to 0.6 uM using xanthine as substrate preincubated for 10 mins followed by substrate addition by Lineweaver-Burk plot analysis. The note with it: cattle.
For series [4] the target is unchanged. Put plainly: Potency index, ratio of allopurinol IC50 to test compound IC50 for bovine xanthine oxidase. The note with it: cattle.

T1 sequence (P80457 whole entry): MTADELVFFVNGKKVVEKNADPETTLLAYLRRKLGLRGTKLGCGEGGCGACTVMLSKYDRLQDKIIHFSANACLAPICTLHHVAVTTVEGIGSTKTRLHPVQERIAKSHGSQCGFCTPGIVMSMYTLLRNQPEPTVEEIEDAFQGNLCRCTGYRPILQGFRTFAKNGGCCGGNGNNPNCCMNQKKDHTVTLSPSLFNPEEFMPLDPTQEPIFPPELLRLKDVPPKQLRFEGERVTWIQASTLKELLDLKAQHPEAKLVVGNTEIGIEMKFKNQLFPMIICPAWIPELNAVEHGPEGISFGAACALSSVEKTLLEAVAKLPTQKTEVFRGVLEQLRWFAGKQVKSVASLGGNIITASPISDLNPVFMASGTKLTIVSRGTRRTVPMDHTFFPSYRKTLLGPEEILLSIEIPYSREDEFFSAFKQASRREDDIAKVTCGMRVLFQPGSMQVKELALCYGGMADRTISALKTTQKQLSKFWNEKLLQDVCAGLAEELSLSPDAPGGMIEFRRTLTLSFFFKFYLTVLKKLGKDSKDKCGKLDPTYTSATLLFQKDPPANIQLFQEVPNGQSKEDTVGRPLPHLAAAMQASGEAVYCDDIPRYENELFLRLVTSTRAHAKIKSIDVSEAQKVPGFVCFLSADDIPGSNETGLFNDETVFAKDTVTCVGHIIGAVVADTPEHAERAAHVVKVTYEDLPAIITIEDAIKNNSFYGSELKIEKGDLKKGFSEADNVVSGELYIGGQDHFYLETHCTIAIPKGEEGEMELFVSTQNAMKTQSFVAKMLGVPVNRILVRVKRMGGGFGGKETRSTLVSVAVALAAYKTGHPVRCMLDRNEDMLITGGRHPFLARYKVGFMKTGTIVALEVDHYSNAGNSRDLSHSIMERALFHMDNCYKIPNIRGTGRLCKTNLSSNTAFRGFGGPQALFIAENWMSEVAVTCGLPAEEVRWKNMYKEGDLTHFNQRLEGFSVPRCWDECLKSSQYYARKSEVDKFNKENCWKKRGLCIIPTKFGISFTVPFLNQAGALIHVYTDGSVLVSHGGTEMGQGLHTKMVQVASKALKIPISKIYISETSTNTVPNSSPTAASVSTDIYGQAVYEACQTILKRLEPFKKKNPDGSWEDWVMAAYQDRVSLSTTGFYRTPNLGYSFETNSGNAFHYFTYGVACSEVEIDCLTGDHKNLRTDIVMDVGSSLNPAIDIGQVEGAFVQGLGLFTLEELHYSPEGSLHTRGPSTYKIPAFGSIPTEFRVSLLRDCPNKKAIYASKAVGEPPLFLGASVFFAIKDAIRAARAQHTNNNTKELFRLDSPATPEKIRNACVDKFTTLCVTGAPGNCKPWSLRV

Consider `N#Cc1ccc(COc2ccc(NC(=O)c3ccncc3)cc2C#N)cc1`, for which, in series [1], the IC50 was 2.3 µM.

As for `CCCOc1ccc(NC(=O)c2cccnc2)cc1C#N`, the inhibition at 50 µM in series [2] was under 60%.

In the case of `CCCCCCCOc1ccc(NC(=O)c2ccncc2)cc1C#N`, in series [1], the concentration for half-maximal inhibition (IC50) is 5 µM.

Consider `CC(C)CCOc1ccc(NC(=O)c2cccnc2)cc1C#N`, for which, in series [1], the IC50 came out at 35 µM.

`N#Cc1cc(NC(=O)c2ccccc2)ccc1OCc1ccccc1`: in series [2], the inhibition at 50 µM is under 60%.

For the compound `N#Cc1ccccc1COc1ccc(NC(=O)c2ccncc2)cc1C#N`, the “inhibition (INH)” value in series [3] is “Active”. Besides, the IC50 in series [1] came to 0.3 µM. Further, in series [4], the “Ratio IC50” value was 28.3. On to `N#Cc1cc(NC(=O)c2ccncc2)ccc1OC1CCCC1`, for which the IC50 in series [1] is 5.7 µM. For `CC(C)Oc1ccc(NC(=O)c2cccnc2)cc1C#N`, the inhibition at 50 µM in series [2] is under 60%. Same read-out and setting: next, `CCCCOc1ccc(NC(=O)c2ccccn2)cc1C#N`: under 60%. `CCC(C)Oc1ccc(NC(=O)c2ccncc2)cc1C#N` (centres undefined): in series [1], the IC50 is 6.1 µM. Take `CCCCCOc1ccc(NC(=O)c2cccnc2)cc1C#N`: the inhibition at 50 µM in series [2] was under 60%.

Consider `COc1ccccc1COc1ccc(NC(=O)c2ccncc2)cc1C#N`, for which the concentration for half-maximal inhibition (IC50) in series [1] was 1.8 µM. Regarding `N#Cc1cc(NC(=O)c2ccncc2)ccc1OCc1ccccc1`, the IC50 in series [1] is 0.9 µM. Same read-out and setting: next, `N#Cc1cc(NC(=O)c2cccnc2)ccc1OCc1ccccc1`: 32.8 µM. For `CCCCCCOc1ccc(NC(=O)c2ccncc2)cc1C#N`, the half-inhibitory concentration (IC50) in series [1] is 2.7 µM. On the same count and under the same terms, the value for `CC(C)CCOc1ccc(NC(=O)c2ccncc2)cc1C#N` was 2 µM. Regarding `CCCCCCCOc1ccc(NC(=O)c2cccnc2)cc1C#N`, the inhibition at 50 µM in series [2] was under 60%.

`N#Cc1cc(NC(=O)c2cccnc2)ccc1OCc1ccc(Cl)cc1`: the inhibition at 50 µM in series [2] was under 60%. `N#Cc1cccc(COc2ccc(NC(=O)c3ccncc3)cc2C#N)c1`: in series [1], the IC50 was 2 µM. Turning to `N#Cc1cc(NC(=O)c2cccnc2)ccc1OC1CCCC1`, the inhibition at 50 µM in series [2] was under 60%. The same measure, in the same setting: next, `N#Cc1cc(NC(=O)c2ccccn2)ccc1OCc1ccc(Cl)cc1`: under 60%. On to `CCCCOc1ccc(NC(=O)c2ccncc2)cc1C#N`, for which the 50% inhibitory concentration (IC50) in series [1] came out at 2.3 µM. Regarding `CCC(C)Oc1ccc(NC(=O)c2cccnc2)cc1C#N` (centres undefined), in series [2], the inhibition at 50 µM was under 60%. As for `N#Cc1cc(NC(=O)c2ccccn2)ccc1OCc1ccccc1`, in series [1], the IC50 was 22.6 µM.

For `COCCOc1ccc(NC(=O)c2ccncc2)cc1C#N`, the inhibition at 50 µM in series [2] was under 60%. `CCCCCCCCOc1ccc(NC(=O)c2ccncc2)cc1C#N`: the half-inhibitory concentration (IC50) in series [1] is 19.2 µM. `CCCCOc1ccc(NC(=O)c2cccnc2)cc1C#N`: in series [2], the inhibition at 50 µM was under 60%. Consider `COc1ccc(COc2ccc(NC(=O)c3ccncc3)cc2C#N)cc1`, for which the IC50 in series [1] stood at 0.6 µM. On to `CCCCCCCCOc1ccc(NC(=O)c2cccnc2)cc1C#N`, for which the inhibition at 50 µM in series [2] was under 60%. The same measure, in the same setting: next, `CC(C)COc1ccc(NC(=O)c2ccccn2)cc1C#N`: under 60%. Turning to `N#Cc1cc(NC(=O)c2ccncc2)ccc1OCc1ccc(Cl)cc1`, in series [1], the IC50 was 0.8 µM.

Take `CCCCCOc1ccc(NC(=O)c2ccncc2)cc1C#N`: in series [1], the IC50 was 3 µM. As for `CC(C)Oc1ccc(NC(=O)c2ccncc2)cc1C#N`, the half-maximal inhibitory concentration (IC50) in series [1] worked out at 9.5 µM. As to `CCCCCCOc1ccc(NC(=O)c2cccnc2)cc1C#N`, in series [2], the inhibition at 50 µM was under 60%.

As to `N#Cc1ccc(COc2ccc(NC(=O)c3cccnc3)cc2C#N)cc1`, the inhibition at 50 µM in series [2] is under 60%. Turning to `COCCOc1ccc(NC(=O)c2cccnc2)cc1C#N`, in series [2], the inhibition at 50 µM is under 60%. For the compound `CCCOc1ccc(NC(=O)c2ccncc2)cc1C#N`, the 50% inhibitory concentration (IC50) in series [1] turned out to be 3.9 µM.

Consider `CC(C)COc1ccc(NC(=O)c2ccncc2)cc1C#N`, for which, in series [1], the IC50 worked out at 1.6 µM. Besides, the “Ratio IC50” value in series [4] turned out to be 5.3.

Consider `CC(C)COc1ccc(NC(=O)c2cccnc2)cc1C#N`, for which, in series [2], the inhibition at 50 µM was under 60%. Same read-out and setting: next, `CC(C)CCOc1ccc(NC(=O)c2ccccn2)cc1C#N`: under 60%. With `N#Cc1cc(-c2n[nH]c(-c3ccncc3)n2)ccn1` [TOPIROXOSTAT], the half-maximal inhibitory concentration (IC50) in series [1] was found to be 0.015 µM.
